# Literature values, collected in article PMC9353746 (ACS chemical neuroscience, 2021).
# Target: T1, recombinant A1 adenosine receptor (human) (Homo sapiens, UniProt P30542)
# T1 sequence (P30542 1-326): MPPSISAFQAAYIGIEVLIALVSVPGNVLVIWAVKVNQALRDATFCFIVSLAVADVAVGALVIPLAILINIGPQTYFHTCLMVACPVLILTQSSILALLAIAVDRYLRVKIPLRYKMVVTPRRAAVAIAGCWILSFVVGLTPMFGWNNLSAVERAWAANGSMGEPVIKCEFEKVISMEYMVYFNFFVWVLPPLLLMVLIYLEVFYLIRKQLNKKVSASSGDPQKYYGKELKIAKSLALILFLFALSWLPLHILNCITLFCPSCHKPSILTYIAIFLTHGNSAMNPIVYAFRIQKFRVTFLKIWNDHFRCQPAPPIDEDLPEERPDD
# Details: read-out: Ki, A1R
compound,measurement,value
"COc1cccc(-c2c(C#N)c(N)nc(SCc3cccc(C)n3)c2C#N)c1 [[^11C]MMPD, 2-amino-4-(3-(methoxy-^11C)phenyl)-6-(((6-methylpyridin-2-yl)methyl)thio)pyridine-3,5-dicarbonitrile]",Ki,490 pM
